According to patent publication US12064426B2, “Selective inhibitors of ROCK1 and ROCK2 protein kinases and uses thereof” (GENOSCO Inc., priority 2021, dated 2024):

Assays:
[1] = target: T1, Recombinant ROCK1 (amino acids 1-477) (Homo sapiens, UniProt Q13464); test: ROCK inhibition assay, LANCE Ultra TR-FRET kinase assay (ROCK1); assay type: biochemical; conditions: 1 μM ATP, 50 nM ULight-CREBtide substrate
T1 construct: Recombinant ROCK1 (amino acids 1-477); by word order, ROCK1 from Carna Biosciences
T1 sequence (Q13464 1-477): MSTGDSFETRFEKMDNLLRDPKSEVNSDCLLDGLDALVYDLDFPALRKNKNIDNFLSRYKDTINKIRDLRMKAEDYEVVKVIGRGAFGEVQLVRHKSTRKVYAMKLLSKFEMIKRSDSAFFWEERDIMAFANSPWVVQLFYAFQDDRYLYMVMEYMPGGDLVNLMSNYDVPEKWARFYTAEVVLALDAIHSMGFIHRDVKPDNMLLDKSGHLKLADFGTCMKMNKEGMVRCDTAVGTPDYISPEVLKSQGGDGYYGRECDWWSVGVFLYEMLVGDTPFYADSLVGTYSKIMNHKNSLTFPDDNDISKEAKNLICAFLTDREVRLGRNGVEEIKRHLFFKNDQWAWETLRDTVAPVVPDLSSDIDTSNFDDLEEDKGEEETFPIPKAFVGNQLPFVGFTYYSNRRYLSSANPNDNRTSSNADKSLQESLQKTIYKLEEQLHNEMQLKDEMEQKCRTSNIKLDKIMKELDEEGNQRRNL
Procedure, shortened: (§1)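 LANCE Ultra TR-FRET kinase assay with recombinant ROCK1 (aa 1-477) or ROCK2 (aa 5-554), 50 nM ULight-CREBtide and ATP at 1 μM (ROCK1) or 4 μM (ROCK2) in HEPES pH 7.5 with MgCl2, 1 h at room temperature. EDTA stop with Eu anti-phospho-CREB Ser133 antibody; 665/615 nm read gives IC50.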

[2] = target: T2, Recombinant ROCK2 (amino acids 5-554) (Homo sapiens, UniProt O75116); test: ROCK inhibition assay, LANCE Ultra TR-FRET kinase assay (ROCK2); assay type: biochemical; conditions: 4 μM ATP, 50 nM ULight-CREBtide substrate
T2 construct: ROCK2 (amino acids 5-554); by word order, ROCK2 from SignalChem
T2 sequence (O75116 5-554): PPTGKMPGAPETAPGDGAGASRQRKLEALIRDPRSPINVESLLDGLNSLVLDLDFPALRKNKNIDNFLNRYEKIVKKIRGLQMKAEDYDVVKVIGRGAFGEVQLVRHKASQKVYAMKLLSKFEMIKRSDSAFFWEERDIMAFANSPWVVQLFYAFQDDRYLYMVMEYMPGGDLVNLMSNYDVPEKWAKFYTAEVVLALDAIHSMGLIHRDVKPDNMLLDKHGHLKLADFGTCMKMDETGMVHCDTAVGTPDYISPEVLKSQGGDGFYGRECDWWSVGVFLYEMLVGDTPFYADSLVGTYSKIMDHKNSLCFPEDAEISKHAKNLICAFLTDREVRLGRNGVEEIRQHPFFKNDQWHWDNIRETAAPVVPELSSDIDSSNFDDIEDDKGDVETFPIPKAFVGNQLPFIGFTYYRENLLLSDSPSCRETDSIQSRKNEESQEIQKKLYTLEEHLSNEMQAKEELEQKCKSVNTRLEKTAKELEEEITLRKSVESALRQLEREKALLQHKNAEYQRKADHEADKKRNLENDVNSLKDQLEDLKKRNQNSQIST
Procedure, shortened: as §1

| SMILES | IC50 [1] | IC50 [2] |
| --- | --- | --- |
| N#Cc1cccc(C(CN)n2cnc3cc(-c4ccnc(N)c4)ccc3c2=O)c1 (stereo not shown) [Compound 501] | > 0.501 µM | 0.1 to 0.5 µM |
| N#Cc1cccc(C(CN)n2cnc3cc(-c4ccnc(F)c4)ccc3c2=O)c1 (stereo not shown) [Compound 502, 3-(2-amino-1-(7-(2-fluoropyridin-4-yl)-4-oxoquinazolin-3(4H)-yl)ethyl)benzonitrile] | > 0.501 µM | 0.1 to 0.5 µM |
| N#Cc1cccc(C(CN)n2cnc3cc(-c4cn[nH]c4C(F)(F)F)ccc3c2=O)c1 (stereo not shown) [Compound 503] | > 0.501 µM | 0.1 to 0.5 µM |
| N#Cc1cccc(C(CN)n2cnc3cc(-c4cn[nH]c4Cl)ccc3c2=O)c1 (stereo not shown) [Compound 504] | > 0.501 µM | 0.1 to 0.5 µM |
| NCC(c1cccc(C(N)=O)c1)n1cnc2cc(-c3ccnc(N)c3)ccc2c1=O (stereo not shown) [Compound 506] | > 0.501 µM | 0.1 to 0.5 µM |
| NCC(c1cccc(C(N)=O)c1)n1cnc2cc(-c3cn[nH]c3C(F)(F)F)ccc2c1=O (stereo not shown) [Compound 507] | > 0.501 µM | 0.1 to 0.5 µM |
| NCC(c1cccc(C(N)=O)c1)n1cnc2cc(-c3cn[nH]c3Cl)ccc2c1=O (stereo not shown) [Compound 508] | > 0.501 µM | 0.1 to 0.5 µM |
| Cc1[nH]ncc1-c1ccc2c(c1)NCN([C@H](CO)c1cccc(Cl)c1)C2=O [Compound 523, (S)-3-(1-(3-chlorophenyl)-2-hydroxyethyl)-7-(5-methyl-1H-pyrazol-4-yl)-2,3-dihydroquinazolin-4(1H)-one] | > 0.501 µM | 0.1 to 0.5 µM |
| O=C1c2ccc(-c3cn[nH]c3C(F)(F)F)cc2NCN1[C@H](CO)c1cccc(Cl)c1 [Compound 524] | > 0.501 µM | 0.1 to 0.5 µM |
| O=C1c2ccc(-c3cn[nH]c3Cl)cc2NCN1[C@H](CO)c1cccc(Cl)c1 [Compound 525] | > 0.501 µM | 0.1 to 0.5 µM |
| Cn1nccc1-c1ccc2c(c1)NCN([C@H](CO)c1cccc(Cl)c1)C2=O [Compound 526] | > 0.501 µM | > 0.5 µM |
| COc1cccc([C@@H](CO)N2CNc3cc(-c4ccncc4)ccc3C2=O)c1 [Compound 527] | > 0.501 µM | 0.1 to 0.5 µM |
| COc1cccc([C@@H](CO)N2CNc3cc(-c4cn[nH]c4C(F)(F)F)ccc3C2=O)c1 [Compound 528] | > 0.501 µM | 0.1 to 0.5 µM |
| COc1cccc([C@@H](CO)N2CNc3cc(-c4cnoc4C)ccc3C2=O)c1 [Compound 529] | > 0.501 µM | > 0.5 µM |
| COc1cccc([C@@H](CO)N2CNc3cc(-c4cn[nH]c4Cl)ccc3C2=O)c1 [Compound 530] | > 0.501 µM | 0.01 to 0.1 µM |
| COc1cccc([C@@H](CO)N2CNc3cc(-c4ccnn4C)ccc3C2=O)c1 [Compound 531] | > 0.501 µM | 0.1 to 0.5 µM |

| SMILES | IC50 [1] | IC50 [2] |
| --- | --- | --- |
| CC(O)c1cn(Cc2cccc(C(=O)NC3CC3)c2)c(=O)c2ccc(-c3c[nH]nc3C(F)(F)F)cc12 (stereo not shown) [Compound 533] | 0.101 to 0.5 µM | 0.01 to 0.1 µM |
| CC(O)c1cn(Cc2cccc(C(=O)NC3COC3)c2)c(=O)c2ccc(-c3c[nH]nc3C(F)(F)F)cc12 (stereo not shown) [Compound 534] | 0.011 to 0.1 µM | < 0.01 µM |
| CNC(=O)c1cccc(Cn2cc(C(C)O)c3cc(-c4conc4C)ccc3c2=O)c1 (stereo not shown) [Compound 537] | 0.011 to 0.1 µM | < 0.01 µM |
| Cc1nocc1-c1ccc2c(=O)n(Cc3cccc(C(=O)NCc4ccccc4)c3)cc(C(C)O)c2c1 (stereo not shown) [Compound 539] | 0.011 to 0.1 µM | < 0.01 µM |
| CNC(=O)c1cccc(Cn2cc(C(C)O)c3cc(-c4ccnn4C)ccc3c2=O)c1 (stereo not shown) [Compound 540] | 0.011 to 0.1 µM | < 0.01 µM |
| CNC(=O)c1cccc(Cn2cc(C(C)O)c3cc(-c4c[nH]nc4Cl)ccc3c2=O)c1 (stereo not shown) [Compound 541] | 0.011 to 0.1 µM | < 0.01 µM |
| CNC(=O)c1cccc(Cn2cc(C(C)O)c3cc(-c4c[nH]nc4N)ccc3c2=O)c1 (stereo not shown) [Compound 544] | 0.011 to 0.1 µM | < 0.01 µM |
| CNC(=O)c1cccc(Cn2cc(C(C)O)c3cc(-c4ccnc(N)c4)ccc3c2=O)c1 (stereo not shown) [Compound 545] | 0.011 to 0.1 µM | < 0.01 µM |
| CNC(=O)c1cccc(Cn2cc(CCO)c3cc(-c4cn[nH]c4C(F)(F)F)ccc3c2=O)c1 [Compound 546, 3-((4-(2-hydroxyethyl)-1-oxo-6-(5-(trifluoromethyl)-1H-pyrazol-4-yl)isoquinolin-2(1H)-yl)methyl)-N-methylbenzamide] | 0.011 to 0.1 µM | < 0.01 µM |
| CNC(=O)c1cccc(Cn2cc(CC(C)O)c3cc(-c4cn[nH]c4C(F)(F)F)ccc3c2=O)c1 (stereo not shown) [Compound 547] | 0.011 to 0.1 µM | < 0.01 µM |
| CNC(=O)c1cccc(C(C)n2cc(CCO)c3cc(-c4cn[nH]c4C(F)(F)F)ccc3c2=O)c1 (stereo not shown) [Compound 549] | 0.011 to 0.1 µM | < 0.01 µM |
| CNC(=O)c1cccc(Cn2cc(CCO)c3cc(-c4cn[nH]c4Cl)ccc3c2=O)c1 [Compound 550] | 0.011 to 0.1 µM | < 0.01 µM |
| CNC(=O)c1cccc(C(C)n2cc(CCO)c3cc(-c4cn[nH]c4Cl)ccc3c2=O)c1 (stereo not shown) [Compound 551] | 0.011 to 0.1 µM | < 0.01 µM |
| CNC(=O)c1cccc(Cn2cc(CCO)c3cc(-c4conc4C)ccc3c2=O)c1 [Compound 552] | 0.101 to 0.5 µM | 0.01 to 0.1 µM |
| CNC(=O)c1cccc(C(C)n2cc(CCO)c3cc(-c4conc4C)ccc3c2=O)c1 (stereo not shown) [Compound 553] | 0.101 to 0.5 µM | 0.01 to 0.1 µM |

Now from value to compound:

| IC50 [1] | IC50 [2] | SMILES |
| --- | --- | --- |
| < 0.01 µM | < 0.01 µM | NCC(c1cccc(Cl)c1)n1cnc2cc(-c3cn[nH]c3Cl)ccc2c1=O (stereo not shown) [Compound 496] |
| 0.011 to 0.1 µM | < 0.01 µM | Cc1nocc1-c1ccc2c(=O)n(C(CN)c3cccc(Cl)c3)cnc2c1 (stereo not shown) [Compound 497] |
| < 0.01 µM | < 0.01 µM | COc1cccc(C(CN)n2cnc3cc(-c4cn[nH]c4C)ccc3c2=O)c1 (stereo not shown) [Compound 498] |
| < 0.01 µM | < 0.01 µM | COc1cccc(C(CN)n2cnc3cc(-c4cn[nH]c4C(F)(F)F)ccc3c2=O)c1 (stereo not shown) [Compound 499] |
| < 0.01 µM | < 0.01 µM | COc1cccc(C(CN)n2cnc3cc(-c4cn[nH]c4Cl)ccc3c2=O)c1 (stereo not shown) [Compound 500] |
| 0.011 to 0.1 µM | < 0.01 µM | CNC(=O)c1cccc([C@@H](C)n2cnc3cc(-c4cn[nH]c4Br)ccc3c2=O)c1 [Compound 509, (R)-3-(1-(7-(5-bromo-1H-pyrazol-4-yl)-4-oxoquinazolin-3(4H)-yl)ethyl)-N-methylbenzamide] |
| 0.011 to 0.1 µM | < 0.01 µM | [2H]C([2H])([2H])NC(=O)c1cccc(Cn2cnc3cc(-c4cn[nH]c4Br)ccc3c2=O)c1 [Compound 511] |
| 0.011 to 0.1 µM | < 0.01 µM | CNC(=O)c1cccc(Cn2ccc3cc(-c4cn[nH]c4Br)ccc3c2=O)c1 [Compound 512] |
| 0.011 to 0.1 µM | < 0.01 µM | [2H]C([2H])([2H])NC(=O)c1cccc(Cn2ccc3cc(-c4cn[nH]c4Br)ccc3c2=O)c1 [Compound 513] |
| 0.011 to 0.1 µM | < 0.01 µM | C[C@H](c1cccc(C(=O)NC2COC2)c1)n1cnc2cc(-c3cn[nH]c3Br)ccc2c1=O [Compound 514] |
| 0.011 to 0.1 µM | < 0.01 µM | C[C@H](c1cccc(C(=O)NC2CC2)c1)n1cnc2cc(-c3cn[nH]c3Br)ccc2c1=O [Compound 515] |
| < 0.01 µM | < 0.01 µM | C[C@H](c1cccc(C(=O)NCc2ccc(F)nc2)c1)n1cnc2cc(-c3cn[nH]c3Br)ccc2c1=O [Compound 516] |
| 0.011 to 0.1 µM | < 0.01 µM | C[C@H](c1cccc(C(=O)Nc2ccc(F)cc2)c1)n1cnc2cc(-c3cn[nH]c3Br)ccc2c1=O [Compound 517] |
| 0.011 to 0.1 µM | < 0.01 µM | CNC(=O)c1cccc([C@@H](C)n2cnc3cc(-c4cn[nH]c4N)ccc3c2=O)c1 [Compound 518] |
| 0.011 to 0.1 µM | < 0.01 µM | [2H]C([2H])([2H])NC(=O)c1cccc([C@@H](C)n2cnc3cc(-c4cn[nH]c4N)ccc3c2=O)c1 [Compound 519] |
| 0.011 to 0.1 µM | < 0.01 µM | C[C@H](c1cccc(C(=O)NC2COC2)c1)n1cnc2cc(-c3cn[nH]c3N)ccc2c1=O [Compound 520] |
| 0.011 to 0.1 µM | < 0.01 µM | C[C@H](c1cccc(C(=O)NC2CC2)c1)n1cnc2cc(-c3cn[nH]c3N)ccc2c1=O [Compound 521] |
| < 0.01 µM | < 0.01 µM | C[C@H](c1cccc(C(=O)NCc2ccc(F)nc2)c1)n1cnc2cc(-c3cn[nH]c3N)ccc2c1=O [Compound 522] |
| < 0.01 µM | < 0.01 µM | CNC(=O)c1cccc(Cn2cc(C(C)O)c3cc(-c4c[nH]nc4C(F)(F)F)ccc3c2=O)c1 (stereo not shown) [Compound 532, 3-((4-(1-hydroxyethyl)-1-oxo-6-(3-(trifluoromethyl)-1H-pyrazol-4-yl)isoquinolin-2(1H)-yl)methyl)-N-methylbenzamide] |
| < 0.01 µM | < 0.01 µM | CNC(=O)c1cccc(Cn2cc(C(C)O)c3cc(-c4c[nH]nc4C(F)F)ccc3c2=O)c1 (stereo not shown) [Compound 535] |
| < 0.01 µM | < 0.01 µM | CC(O)c1cn(Cc2cccc(C(=O)NC3CCOCC3)c2)c(=O)c2ccc(-c3c[nH]nc3C(F)F)cc12 (stereo not shown) [Compound 536] |
| < 0.01 µM | < 0.01 µM | Cc1nocc1-c1ccc2c(=O)n(Cc3cccc(C(=O)NCc4ccc(F)nc4)c3)cc(C(C)O)c2c1 (stereo not shown) [Compound 538] |
| < 0.01 µM | < 0.01 µM | CC(O)c1cn(Cc2cccc(C(=O)NCCN(C)C)c2)c(=O)c2ccc(-c3c[nH]nc3Cl)cc12 (stereo not shown) [Compound 542] |
| < 0.01 µM | < 0.01 µM | CC(O)c1cn(Cc2cccc(C(=O)NCCc3ccccn3)c2)c(=O)c2ccc(-c3c[nH]nc3Cl)cc12 (stereo not shown) [Compound 543] |
| < 0.01 µM | < 0.01 µM | CNC(=O)c1cccc(Cn2cc(CCN(C)C)c3cc(-c4cn[nH]c4C(F)(F)F)ccc3c2=O)c1 [Compound 548] |
